Data reported in US8476031B2, “Methods for protein labeling based on acyl carrier protein” (priority 2003, dated 2013).

What was measured:
[1] = target: T1, 6xHis-ACPS (Escherichia coli, UniProt P24224); assay: Competition assay between CoA and CoA-label as ACPS substrates; assay type: biochemical, E. coli; settings: 6xHis-ACP 0.4 μM, 6xHis-ACPS 0.4 μM, CoA-L 2 μM, CoA 0-80 μM; fit I=A/(1+Bx) of Western blot intensities
T1 sequence (P24224 1-126): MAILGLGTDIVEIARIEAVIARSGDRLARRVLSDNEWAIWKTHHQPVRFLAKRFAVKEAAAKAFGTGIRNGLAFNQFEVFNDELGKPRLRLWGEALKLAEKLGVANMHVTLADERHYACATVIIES
Procedure: (C) Competition assay between CoA and CoA-Bt or CoA-Dg as ACPS substrates: 6xHis-ACP (0.4 μM), 6xHis-ACPS (0.4 μM), CoA-Bt or CoA-Dg (2 μM) and varying concentrations of CoA (0-80 μM) are incubated for 30 min and the degree of labeling determined by Western blotting.
Purified 6xHis-AcpS (0.4 μM) is incubated at RT with either CoA-Bt or CoA-Dg (2 μM), variable amounts of CoA (0, 2, 4, 8, 12, 20, 40, 80 μM) and purified 6xHis-ACP-ha (0.4 μM) in 20 μl reaction buffer (50 mM Tris.Cl, pH 7.5, 10 mM MgCl2). After 25 minutes, each sample is quenched by addition of 20 μl of 2×SDS sample buffer and heated at 95° C. for 2 minutes. Labeled 6xHis-ACP-ha is detected by Western-blotting using either a streptavidin-horseradish peroxidase conjugate (dilution 1:12500) or an anti-digoxigenin antibody-horseradish peroxidase conjugate (dilution 1:500) and a chemiluminescent peroxidase substrate. Signal intensities at 0 μM CoA are arbitrary set to 1 for each experiment.

[2] = target: 6xHis-ACP (Escherichia coli, UniProt P0A6A8+P24224); assay: In vitro biotinylation of 6xHis-ACP using CoA-Bt and 6xHis-ACPS (Western blot); assay type: biochemical, E. coli; settings: 6xHis-ACP 1 μM, 6xHis-ACPS 0.2 μM, CoA-Bt 5 μM; controls lacking components
Procedure: (A) Analysis of the reaction of 6xHis-ACP (1 μM), 6xHis-ACPS (0.2 μM) and CoA-Bt (5 μM). At indicated times (t) aliquots are removed from the reaction mixture and biotinylation of 6xHis-ACP probed by Western blotting using a streptavidin-peroxidase conjugate.
Purified 6xHis-ACP (1 μM) is incubated with 6xHis-ACPS (0.2 μM) and MgCl2 (10 mM) in reaction buffer (43 μl, 50 mM Tris Cl, pH 8.8) at room temperature. An aliquot of 7.5 μl is taken for analysis. CoA-Bt is added to a final concentration of 5 μM. Aliquots of 7.5 μl are taken at defined times. The aliquots are quenched for 30 seconds with coenzyme A (1 mM final concentration), and 8.2 μl SDS-buffer 2× are added. The samples are heated for 2 minutes at 95° C. The biotinylated 6xHis-ACP is detected by Western-blotting, using a streptavidin-horseradish peroxidase conjugate (NEN) and a chemiluminescent peroxidase substrate (Renaissance reagent plus, NEN). The western blot is analyzed using an image station (Kodak 440). As controls, samples containing each protein alone, and samples containing only one of the two proteins and CoA-Bt are also prepared and analyzed for biotinylation as above in order to check the background and to check the specificity of the reaction.

[3] = target: T2, ACP-NK1 fusion protein displayed on HEK293 cells (UniProt P0A6A8+P24224+P25103); assay: Labeling of ACP-NK1 fusion protein displayed on HEK293 cells (confocal fluorescence microscopy); assay type: cell-based; settings: 5 μM CoA substrate, 1 μM 6xHis-AcpS, 10 min RT; CoA-Bt followed by Streptavidin-Cy5; no staining of non-transfected cells
T2 construct: FLAG tag (C); 6xHis tag (C); expressed in transfected cells; host or cells: HEK293 (transient, pCEP4 vector)
Procedure: For the transient expression of ACP-NK1, the signal sequence of the 5-HT3-receptor (Sig5HT3) is fused to the N terminus of ACP via a short DYV linker and NK1 is fused to the C terminus of ACP via a short TS linker. In the resulting construct, a FLAG tag and a 6xHis tag is also attached to the C terminus of NK1. The corresponding gene of the fusion protein is inserted into the NheI and BamHI sites of the vector pCEP4 (Invitrogen). HEK293 cells are grown in DMEM/F2 (Dulbecco's modified Eagle medium, GIBCO BRL) supplemented with […] fetal calf serum (GIBCO, BRL). Transient transfection is performed as described (Nat Biotechnol 21, 86-89 (2003)) and the HEK293 cells are co-transfected with vectors expressing ACP-NK1 and a nuclear targeted EGEP (EGFP-NLS3). After 24 h, cells are incubated for 10 min at room temperature with 500 μl of PBS buffer containing MgCl2 (10 mM), 6xHis-AcpS (1 μM) and either CoA-Cy3, CoA-Cy5 or CoA-Bt (each 5 μM). The cells are then washed three times with PBS to remove any excess substrate and directly analyzed by laser-scanning confocal fluorescence microscopy when labeled with Cy3 or Cy5. Biotinylated cells are incubated with FluoroLink™ Cy5-labeled streptavidin (Amersham Biosciences) at concentrations of 1 μg/ml in PBS before being washed three times with PBS. Laser-scanning confocal micographs are recorded using a 488 nm argon/krypton laser line; a 543 nm HeNe laser line or a 633 nm HeNe laser line on a Zeiss LSM 510 microscope (Carl Zeiss AG, Göttingen, Germany) with a 63× water (1.2 numerical aperture) objective. Scanning speed and laser intensity are adjusted to avoid photobleaching of the fluorescent probes, and damage or morphological changes of the cells. Fluorescence is analyzed in the channels sensitive to GFP and sensitive to the respective dye. […] The ACP-NK1 receptor transiently expressed in HE293 cells is co-stained in a further experiment with CoA-Cy5 and with tetramethylrhodamine-labeled substance P(SP-rho), the natural ligand of NK1.

[4] = target: T3, ACP-NK1 receptor transiently expressed in HE293 cells (UniProt P0A6A8+P25103); assay: Co-staining of ACP-NK1 with CoA-Cy5 and SP-rho, reversal by unlabeled substance P; assay type: cell-based; settings: CoA-Cy5 and SP-rho co-stained
T3 construct: FLAG tag (C); 6xHis tag (C); expressed in transfected cells; host or cells: HEK293 (transient, pCEP4 vector)
Procedure: For the transient expression of ACP-NK1, the signal sequence of the 5-HT3-receptor (Sig5HT3) is fused to the N terminus of ACP via a short DYV linker and NK1 is fused to the C terminus of ACP via a short TS linker. In the resulting construct, a FLAG tag and a 6xHis tag is also attached to the C terminus of NK1. The corresponding gene of the fusion protein is inserted into the NheI and BamHI sites of the vector pCEP4 (Invitrogen). HEK293 cells are grown in DMEM/F2 (Dulbecco's modified Eagle medium, GIBCO BRL) supplemented with […] fetal calf serum (GIBCO, BRL). Transient transfection is performed as described (Nat Biotechnol 21, 86-89 (2003)) and the HEK293 cells are co-transfected with vectors expressing ACP-NK1 and a nuclear targeted EGEP (EGFP-NLS3). […] The cells are then washed three times with PBS to remove any excess substrate and directly analyzed by laser-scanning confocal fluorescence microscopy when labeled with Cy3 or Cy5. […] Laser-scanning confocal micographs are recorded using a 488 nm argon/krypton laser line; a 543 nm HeNe laser line or a 633 nm HeNe laser line on a Zeiss LSM 510 microscope (Carl Zeiss AG, Göttingen, Germany) with a 63× water (1.2 numerical aperture) objective. […] Fluorescence is analyzed in the channels sensitive to GFP and sensitive to the respective dye. […]

T2 sequence (P0A6A8+P25103 fused, one chain of several): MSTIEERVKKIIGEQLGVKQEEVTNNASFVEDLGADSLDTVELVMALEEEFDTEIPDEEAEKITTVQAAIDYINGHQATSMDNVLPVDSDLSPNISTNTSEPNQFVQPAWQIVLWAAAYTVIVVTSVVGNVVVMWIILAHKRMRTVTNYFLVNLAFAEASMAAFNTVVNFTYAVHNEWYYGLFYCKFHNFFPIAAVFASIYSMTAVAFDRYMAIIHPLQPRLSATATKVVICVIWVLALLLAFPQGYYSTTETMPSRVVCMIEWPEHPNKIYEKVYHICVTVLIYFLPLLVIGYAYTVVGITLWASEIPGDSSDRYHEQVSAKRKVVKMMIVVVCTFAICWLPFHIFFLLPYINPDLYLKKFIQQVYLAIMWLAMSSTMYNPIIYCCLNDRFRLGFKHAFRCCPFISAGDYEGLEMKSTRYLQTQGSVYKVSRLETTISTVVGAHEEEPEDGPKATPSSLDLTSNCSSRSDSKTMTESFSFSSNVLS
T3 sequence (P0A6A8+P25103 fused): as the sequence (P0A6A8+P25103 fused, one chain of several) above
6xHis-ACP, sequence (P0A6A8 whole entry, looked up, one chain of several): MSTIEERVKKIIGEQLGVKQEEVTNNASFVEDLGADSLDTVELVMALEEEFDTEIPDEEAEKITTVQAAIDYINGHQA

Structure (SMILES)	ratio of the specificity constants (kcat/KM)CoA/(kcat/KM)CoA-L [1]	biotinylation of 6xHis-ACP, specificity controls [2]	membrane labelling of transfected HEK293 cells [3]	staining localisation in co-staining experiment [4]
CC(C)(COP(=O)(O)OP(=O)(O)OC[C@H]1O[C@@H](n2cnc3c(N)ncnc32)C(O)[C@H]1OP(=O)(O)O)[C@@H](O)C(=O)NCCC(=O)NCCS[C@@H]1CC(=O)N(CCCCCC(=O)NNC(=O)CCCC[C@@H]2SC[C@@H]3NC(=O)N[C@@H]32)C1=O (stereo partly shown) [CoA-Bt]	0.48	depends on the presence of all three components	clear membrane labelling	–
CCN1/C(=C/C=C/C2=[N+](CCCCCC(=O)NCCN3C(=O)C[C@@H](SCCNC(=O)CCNC(=O)[C@H](O)C(C)(C)COP(=O)(O)OP(=O)(O)OC[C@H]4O[C@@H](n5cnc6c(N)ncnc65)C(O)[C@H]4OP(=O)(O)O)C3=O)c3ccc(S(=O)(=O)O)cc3C2(C)C)C(C)(C)c2cc(S(=O)(=O)[O-])ccc21 (stereo partly shown) [CoA-Cy3]	–	–	clear membrane labelling	–
CCN1/C(=C/C=C/C=C/C2=[N+](CCCCCC(=O)NCCN3C(=O)C[C@@H](SCCNC(=O)CCNC(=O)[C@H](O)C(C)(C)COP(=O)(O)OP(=O)(O)OC[C@H]4O[C@@H](n5cnc6c(N)ncnc65)C(O)[C@H]4OP(=O)(O)O)C3=O)c3ccc(S(=O)(=O)O)cc3C2(C)C)C(C)(C)c2cc(S(=O)(=O)[O-])ccc21 (stereo partly shown) [CoA-Cy5]	–	–	clear membrane labelling	stain exclusively the membrane area
CC(C)(COP(=O)(O)OP(=O)(O)OC[C@H]1O[C@@H](n2cnc3c(N)ncnc32)C(O)[C@H]1OP(=O)(O)O)[C@@H](O)C(=O)NCCC(=O)NCCSC1CC(=O)N(CCCCCC(=O)NNC(=O)CCC(=O)N[C@H]2CC[C@@]3(C)[C@H](CC[C@@H]4[C@H]3C[C@@H](O)[C@]3(C)[C@@H](C5=CC(=O)OC5)CC[C@]43O)C2)C1=O (stereo partly shown) [CoA-Dg]	0.35	–	–	–
